From patent publication US11510876B2, “In vivo targeting of extracellular vesicles” (Mayo Foundation for Medical Education and Research, priority 2019, dated 2022)

Key:
[1] = test system: extracellular vesicles; test: Homing of extracellular vesicles to the target site by an injected homing agent; type: in vivo; conditions: subcutaneous area in foot pad of a mouse, 500 ng also printed as 1.6 nmol
From the text: We have discovered that non-toxic doses of phenothiazine derivatives or polyethylene glycols are useful for the homing of exogenous extracellular vesicles to specific tissues in the body. This discovery has many potential applications in therapy and diagnosis in its ability to spatially concentrate extracellular vesicles. These methods can improve the homing of extracellular vesicles to diseased tissues, as well as enriched sampling and extraction of extracellular vesicles for diagnostics at low cost. Rather than using extensively modified extracellular vesicles (e.g., with biological and/or chemical modifications), which can be complex and costly, extracellular vesicles can be targeted by using little to no modification of the extracellular vesicles themselves. […] Our initial findings show broad applicability with regard to the extracellular vesicles type/source and the target tissue in the context of homing using phenothiazine derivatives or polyethylene glycols. At present, the homing is effective with as low as 500 ng (1.6 nmol) of methylene blue injected at the target site. In this example, the target site is the subcutaneous area in foot pad of a mouse, with good perfusion of the methylene blue, so the effective amount of methylene blue for extracellular vesicle homing could be much lower than 500 ng (1.6 nmol).

[2] = test system: ^89Zr labeled stem cell derived exosomes; test: PET imaging of methylene blue mediated homing of intravenously injected 89Zr labeled exosomes to the injected hind paw (FIG. 11); type: in vivo, mouse; conditions: 1% methylene blue in Lactated Ringer's Solution injected in hind limb paw 1 h after i.v. exosomes; PET 1 h later; opposite paw (Ringer's only) showed no accumulation
From the text: FIG. 11 illustrates four PET images of injected ^89Zr labeled exosomes in mice. PET images 450, 452 utilized stem cell derived exosomes, whereas PET images 454, 456 illustrate prostate cancer (PC-3) derived exosomes. Both groups of exosomes were labeled with ^89Zr, a positron emitter, which allows the exosomes to be tracked within the mouse by PET imaging. As illustrated in some or all of the PET images 450, 452, 454, 456, the heart/lungs 460, the liver 462, the gut 464/468 and 466/470 show “hotspots” of the ^89Zr labeled exosomes (homing agent mediated accumulation zones of the ^89Zr labeled exosomes). […] For PET image 452, the ^89Zr labeled stem cell derived exosomes were intravenously injected (via tail vein). Then after one hour, 1% methylene blue (in Lactated Ringer's Solution) was injected in a hind limb paw. The opposite hind limb paw received a methylene blue-free and sterile Lactated Ringer's Solution. One hour after administering the methylene blue solution, the PET image 452 was taken. […] Thus, the methylene blue homed the ^89Zr linked stem cell derived exosomes from circulation, effectively showing that the ^89Zr labeled stem cell derived exosomes targeted methylene blue.

[3] = test system: ^89Zr labeled A549 lung cancer derived exosomes; test: PET imaging of methylene blue mediated homing of intravenously injected 89Zr labeled exosomes to the injected hind paw (FIG. 13); type: in vivo, mouse; conditions: 1% methylene blue in hind limb paw 1 h after i.v. exosomes; PET 1 h later; opposite paw (Ringer's only) showed no accumulation
Protocol: (§1) FIG. 13 illustrates methylene blue was able to home exosomes irrespective of their cellular origin. PET image 550 and 554 was taken one hour after the mouse was intravenously injected (via tail vein) with the ^89Zr labeled A549 lung cancer derived exosomes and SK-N-SH brain cancer (bone marrow metastasis) derived exosomes, respectively. […] Then after one hour, 1% methylene blue (in Lactated Ringer's Solution) was injected in a hind limb paw. The opposite hind limb paw received a methylene blue-free and sterile Lactated Ringer's Solution. One hour after administering the methylene blue solution, the PET image 552 and 556 was taken. […] Thus, the methylene blue homed the ^89Zr labeled A549 and SK-N-SH derived exosomes from circulation showing that it can home extracellular vesicles independent of their cellular origin.

[4] = test system: SK-N-SH brain cancer (bone marrow metastasis) derived exosomes; test: as above; type: in vivo, mouse; conditions: 1% methylene blue in hind limb paw 1 h after i.v. exosomes; PET 1 h later; opposite paw (Ringer's only) showed no accumulation
Protocol: as §1

[5] = test system: ^89Zr labeled PC-3 derived exosomes; test: PET imaging of methylene blue mediated homing of intravenously injected 89Zr labeled exosomes to the injected hind paw (FIG. 11); type: in vivo, mouse; conditions: 1% methylene blue in Lactated Ringer's Solution injected in hind limb paw 1 h after i.v. exosomes; PET 1 h later; opposite paw (Ringer's only) showed no accumulation
Protocol: For PET image 456, the ^89Zr labeled PC-3 derived exosomes were intravenously injected (via tail vein). Then after one hour, 1% methylene blue (in Lactated Ringer's Solution) was injected in a hind limb paw. The opposite hind limb paw received a methylene blue-free and sterile Lactated Ringer's Solution. One hour after administering the methylene blue solution, the PET image 456 was taken. […] Thus, methylene blue homed the ^89Zr labeled PC-3 derived exosomes from circulation to the paw region, effectively showing that the ^89Zr labeled PC-3 derived exosomes targeted methylene blue.

[6] = test system: ^89Zr labeled stem cell derived exosomes; test: Time-lapse PET imaging of the bio-distribution of 89Zr labeled exosomes after methylene blue paw injections (FIG. 12); type: in vivo, mouse
Protocol: FIG. 12 illustrates four time-lapse PET images showing the bio-distribution of injected ^89Zr labeled stem cell derived exosomes in a mouse. Similarly to the experiment illustrated in FIG. 11, stem cell derived exosomes were labeled with ^89Zr, a positron emitter, which allows the exosomes to be tracked within the mouse by PET imaging. Then, the ^89Zr labeled stem cell derived exosomes were injected intravenously into the mouse, and subsequently imaged thirty minutes after the injection, shown in PET image 500. Illustrated in PET image 500, and also the other PET images 502, 504, 506, are “hotspots” of the administered ^89Zr labeled stem cell derived exosomes (homing agent mediated accumulation zones of the ^89Zr labeled exosomes) at specific locations within the mouse (e.g., the heart 510, the liver 512, and the gut 514). […] Thus, the ^89Zr labeled stem cell derived exosomes were effectively homed to the tissue that contained methylene blue. After administering the methylene blue solution, 20 additional hours were lapsed before completing a second imaging of the mouse (at PET image 504). […] Then, immediately after acquiring PET image 504, the mouse was injected with the methylene blue solution at the hind paw (designated numeral 520), opposite the first hind paw injected with methylene blue (designated numeral 516). One hour after the second injection at the opposite hind paw at reference numeral 520, PET image 506 was acquired.

CN(C)c1ccc2nc3ccc(=[N+](C)C)cc-3sc2c1 [methylene blue]
lowest amount at which homing is effective [1]: 500 ng
accumulation of ^89Zr labeled stem cell derived exosomes in the hind paw that received methylene blue [2]: significant accumulation
accumulation of ^89Zr labeled A549 derived exosomes in the hind paw that received methylene blue (PET image 552) [3]: significant accumulation
accumulation of ^89Zr labeled SK-N-SH derived exosomes in the hind paw that received methylene blue (PET image 556) [4]: significant accumulation
accumulation of ^89Zr labeled PC-3 derived exosomes in the hind paw that received methylene blue [5]: significant accumulation
homing of exosomes to methylene blue injection sites (PET image 502) ([6]; 1% methylene blue injected in a hind paw and a front paw 19 hours after i.v. exosomes, imaged 3 h post-methylene blue injection): homing of exosome to hind paw
signal from exosomes at methylene blue injection sites (PET image 504) ([6]; 20 additional hours after the methylene blue injection, hind paw and front paw): persistence of signal
accumulation of exosomes at second methylene blue injection site, opposite hind paw (PET image 506) ([6]; second methylene blue injection about two days after exosome injection, PET one hour later): accumulated at the target site 520
